Test results: ChEMBL document CHEMBL4706549, “Isoquinolinone derivatives as potent CNS multi-receptor D/5-HT/5-HT/5-HT/5-HT agents: Synthesis and pharmacological evaluation” (Eur J Med Chem, 2020)
The source made the active and inactive calls. The calls are words filed in the database; no cut-off is given here.

Experiments:
[1] = target: 5-hydroxytryptamine receptor 2A (Rattus norvegicus, UniProt P14842); assay: biochemical
D(2) dopamine receptor [2] = target: D(2) dopamine receptor (Rattus norvegicus, UniProt P61169); assay: biochemical
Sequence of D(2) dopamine receptor (Rattus norvegicus, UniProt P61169) (P61169 whole entry): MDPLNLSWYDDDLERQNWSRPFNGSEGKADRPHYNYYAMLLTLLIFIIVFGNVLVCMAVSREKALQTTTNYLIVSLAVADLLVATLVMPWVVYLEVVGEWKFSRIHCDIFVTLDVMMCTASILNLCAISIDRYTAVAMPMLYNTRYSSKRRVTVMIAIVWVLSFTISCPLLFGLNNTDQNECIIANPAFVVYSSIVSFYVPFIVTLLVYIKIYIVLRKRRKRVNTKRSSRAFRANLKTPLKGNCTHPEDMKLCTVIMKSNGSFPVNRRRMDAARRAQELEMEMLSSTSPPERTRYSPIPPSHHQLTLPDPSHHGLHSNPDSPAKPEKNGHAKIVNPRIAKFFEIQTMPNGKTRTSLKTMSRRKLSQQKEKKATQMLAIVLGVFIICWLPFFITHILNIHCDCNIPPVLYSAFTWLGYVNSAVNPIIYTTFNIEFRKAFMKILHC
Description: Displacement of [3H]spiperone from D2 receptor in rat striatum measured after 15 mins by liquid scintillation counting method

[3] = target: T1, 5-hydroxytryptamine receptor 1A (Rattus norvegicus, UniProt P19327); assay: biochemical
T1 sequence (P19327 whole entry): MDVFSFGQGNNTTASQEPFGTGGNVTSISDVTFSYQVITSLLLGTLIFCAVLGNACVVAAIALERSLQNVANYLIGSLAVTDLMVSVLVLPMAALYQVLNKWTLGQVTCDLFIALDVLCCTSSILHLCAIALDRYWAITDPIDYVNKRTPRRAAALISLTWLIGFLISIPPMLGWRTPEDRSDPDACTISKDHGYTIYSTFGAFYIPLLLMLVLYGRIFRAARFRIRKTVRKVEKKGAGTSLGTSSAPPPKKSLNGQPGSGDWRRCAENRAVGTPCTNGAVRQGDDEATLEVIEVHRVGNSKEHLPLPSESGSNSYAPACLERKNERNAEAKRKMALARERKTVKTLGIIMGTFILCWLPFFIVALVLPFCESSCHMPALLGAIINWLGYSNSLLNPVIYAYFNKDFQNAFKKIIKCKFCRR
Description: Displacement of [3H](+)8-OH-DPAT from rat cerebral cortex 5HT1A receptor measured after 30 mins by liquid scintillation counting method

[4] = Effect on spontaneous locomotor activity in Kunming mouse assessed as total distance traveled at 3 mg/kg, ig measured after 1 hr (reference value: 13579 +/- 8864 millimeter); assay type: ADME, organism-based; conditions: in vivo, po
[5] = Effect on spontaneous locomotor activity in Kunming mouse assessed as total distance traveled at 10 mg/kg, ig measured after 1 hr (reference value: 13579 +/- 8864 millimeter); assay type: ADME, organism-based; conditions: in vivo, po
[6] = Effect on spontaneous locomotor activity in Kunming mouse assessed as total distance traveled at 1 mg/kg, ig measured after 1 hr (reference value: 13579 +/- 8864 millimeter); assay type: ADME, organism-based; conditions: in vivo, po
D(2) dopamine receptor [7] = target: D(2) dopamine receptor (Homo sapiens, UniProt P14416); assay: Binding affinity to D2 receptor (unknown origin)
D(3) dopamine receptor = D(3) dopamine receptor (Homo sapiens, UniProt P35462)
Sequence of D(3) dopamine receptor (P35462 whole entry): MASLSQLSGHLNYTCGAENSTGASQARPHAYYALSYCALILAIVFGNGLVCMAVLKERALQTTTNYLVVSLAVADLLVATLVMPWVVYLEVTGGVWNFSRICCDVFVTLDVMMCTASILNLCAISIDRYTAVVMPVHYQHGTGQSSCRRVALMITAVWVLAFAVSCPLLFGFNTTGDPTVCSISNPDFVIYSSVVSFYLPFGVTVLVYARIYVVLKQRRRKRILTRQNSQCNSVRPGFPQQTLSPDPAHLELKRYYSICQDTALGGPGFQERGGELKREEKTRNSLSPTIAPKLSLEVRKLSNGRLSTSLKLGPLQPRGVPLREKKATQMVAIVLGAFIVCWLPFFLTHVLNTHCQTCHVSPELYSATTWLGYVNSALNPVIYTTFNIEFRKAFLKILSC
Description: Binding affinity to D3 receptor (unknown origin)

[8] = target: 5-hydroxytryptamine receptor 1A (Homo sapiens, UniProt P08908); assay: Binding affinity to 5HT1A receptor (unknown origin)
Histamine H1 receptor [9] = target: Histamine H1 receptor (Homo sapiens, UniProt P35367); assay: Binding affinity to H1 receptor (unknown origin)
[10] = target: T2, 5-hydroxytryptamine receptor 2A (Homo sapiens, UniProt P28223); assay: Binding affinity to 5HT2A receptor (unknown origin)
T2 sequence (P28223 whole entry): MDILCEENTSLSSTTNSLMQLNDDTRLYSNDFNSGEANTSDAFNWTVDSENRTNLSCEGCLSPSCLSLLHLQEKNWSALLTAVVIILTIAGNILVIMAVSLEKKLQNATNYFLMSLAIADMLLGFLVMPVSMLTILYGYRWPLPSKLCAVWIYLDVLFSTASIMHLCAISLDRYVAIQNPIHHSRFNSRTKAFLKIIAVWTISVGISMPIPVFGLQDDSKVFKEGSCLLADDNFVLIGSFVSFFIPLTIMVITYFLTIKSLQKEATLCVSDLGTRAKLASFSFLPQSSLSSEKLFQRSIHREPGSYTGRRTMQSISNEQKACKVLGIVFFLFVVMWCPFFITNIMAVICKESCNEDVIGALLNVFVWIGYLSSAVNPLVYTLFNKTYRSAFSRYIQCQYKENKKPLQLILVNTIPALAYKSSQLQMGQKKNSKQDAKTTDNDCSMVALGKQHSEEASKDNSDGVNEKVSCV

[11] = target: 5-hydroxytryptamine receptor 2C (Homo sapiens, UniProt P28335); assay: Binding affinity to 5HT2C receptor (unknown origin)
Sequence of 5-hydroxytryptamine receptor 2C (Homo sapiens, UniProt P28335) (P28335 whole entry): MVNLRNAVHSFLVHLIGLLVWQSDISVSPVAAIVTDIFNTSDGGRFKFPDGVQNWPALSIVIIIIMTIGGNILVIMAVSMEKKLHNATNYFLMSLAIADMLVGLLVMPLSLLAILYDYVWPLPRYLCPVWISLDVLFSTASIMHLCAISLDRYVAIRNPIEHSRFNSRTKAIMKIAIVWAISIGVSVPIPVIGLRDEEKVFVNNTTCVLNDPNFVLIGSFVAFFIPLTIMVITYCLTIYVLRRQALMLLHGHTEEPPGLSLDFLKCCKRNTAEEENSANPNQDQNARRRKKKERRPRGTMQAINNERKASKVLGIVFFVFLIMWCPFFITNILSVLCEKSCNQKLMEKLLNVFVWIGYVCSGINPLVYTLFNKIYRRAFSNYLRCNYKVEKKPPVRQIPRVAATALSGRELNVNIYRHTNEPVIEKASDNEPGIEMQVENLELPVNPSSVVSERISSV

Mus musculus [12] = species: Mus musculus; assay: animal or person; conditions: Kunming, po
Mus musculus [13] = species: Mus musculus; assay: animal or person; conditions: Kunming, po; remark: listed apart in the source
Description: Antipsychotic activity in Kunming mouse assessed as inhibition of MK801-induced locomotor activity administered orally 30 mins prior to MK801 challenge and measured for 90 mins

[14] = Therapeutic index, ratio of ED50 for toxicity in po dosed Kunming mouse assessed as catalepsy to ED50 for antipsychotic activity in Kunming mouse assessed as inhibition of apomorphine-induced climbing behavior; assay type: organism-based; conditions: in vivo, read-out: Ratio ED50
[15] = Therapeutic index, ratio of ED50 for toxicity in po dosed Kunming mouse assessed as catalepsy to ED50 for antipsychotic activity in Kunming mouse assessed as inhibition of MK801-induced locomotor activity; assay type: organism-based; conditions: in vivo, read-out: Ratio ED50
[16] = mouse, in vivo, po
Description: Toxicity in po dosed Kunming mouse assessed as catalepsy

[17] = Effect on total exploration time in Sprague-Dawley rat at 0.2 mg/kg, po measured after 1 hr by novel object recognition test; assay type: ADME, organism-based; conditions: in vivo
Rattus norvegicus = assay: Cognitive enhancement effect in Sprague-Dawley rat assessed as increase in time spent in exploring novel object at 0.2 mg/kg, po administered 1 hr prior to acquisition trial and measured after 24 hrs by novel object recognition test; assay type: functional, organism-based
[18] = target: 5-hydroxytryptamine receptor 7 (Rattus norvegicus, UniProt P32305); assay: biochemical
Sequence of 5-hydroxytryptamine receptor 7 (P32305 whole entry): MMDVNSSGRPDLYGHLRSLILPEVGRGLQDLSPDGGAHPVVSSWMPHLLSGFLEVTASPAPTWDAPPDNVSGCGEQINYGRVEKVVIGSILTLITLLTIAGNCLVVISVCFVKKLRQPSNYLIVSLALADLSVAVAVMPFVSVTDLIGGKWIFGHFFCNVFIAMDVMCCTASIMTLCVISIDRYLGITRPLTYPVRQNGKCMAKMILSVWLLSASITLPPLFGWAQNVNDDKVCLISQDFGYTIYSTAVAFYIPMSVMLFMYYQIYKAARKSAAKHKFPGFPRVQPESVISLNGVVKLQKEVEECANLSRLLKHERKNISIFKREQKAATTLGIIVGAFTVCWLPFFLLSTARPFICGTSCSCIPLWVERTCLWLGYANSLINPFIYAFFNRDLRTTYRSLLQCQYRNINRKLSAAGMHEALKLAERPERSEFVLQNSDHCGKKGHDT

[19] = target: 5-hydroxytryptamine receptor 2C (Rattus norvegicus, UniProt P08909)
Sequence of 5-hydroxytryptamine receptor 2C (Rattus norvegicus, UniProt P08909) (P08909 whole entry): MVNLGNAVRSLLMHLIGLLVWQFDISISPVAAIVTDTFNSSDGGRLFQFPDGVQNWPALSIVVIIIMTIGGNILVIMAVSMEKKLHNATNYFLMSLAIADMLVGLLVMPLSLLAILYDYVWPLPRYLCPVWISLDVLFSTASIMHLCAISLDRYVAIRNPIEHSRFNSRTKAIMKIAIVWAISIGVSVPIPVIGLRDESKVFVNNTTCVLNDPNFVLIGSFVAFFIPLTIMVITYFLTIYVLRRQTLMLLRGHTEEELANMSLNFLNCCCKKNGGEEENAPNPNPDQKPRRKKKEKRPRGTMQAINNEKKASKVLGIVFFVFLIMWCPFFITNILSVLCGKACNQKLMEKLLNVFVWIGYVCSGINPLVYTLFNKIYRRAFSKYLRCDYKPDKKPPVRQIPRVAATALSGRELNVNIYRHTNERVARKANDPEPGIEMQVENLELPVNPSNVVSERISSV
Description: Displacement of [3H]mesulergine from rat cerebral cortex 5HT2C receptor measured after 15 mins by liquid scintillation counting method

Histamine H1 receptor [20] = target: Histamine H1 receptor (Cavia porcellus, UniProt P31389)
Sequence of Histamine H1 receptor (Cavia porcellus, UniProt P31389) (P31389 whole entry): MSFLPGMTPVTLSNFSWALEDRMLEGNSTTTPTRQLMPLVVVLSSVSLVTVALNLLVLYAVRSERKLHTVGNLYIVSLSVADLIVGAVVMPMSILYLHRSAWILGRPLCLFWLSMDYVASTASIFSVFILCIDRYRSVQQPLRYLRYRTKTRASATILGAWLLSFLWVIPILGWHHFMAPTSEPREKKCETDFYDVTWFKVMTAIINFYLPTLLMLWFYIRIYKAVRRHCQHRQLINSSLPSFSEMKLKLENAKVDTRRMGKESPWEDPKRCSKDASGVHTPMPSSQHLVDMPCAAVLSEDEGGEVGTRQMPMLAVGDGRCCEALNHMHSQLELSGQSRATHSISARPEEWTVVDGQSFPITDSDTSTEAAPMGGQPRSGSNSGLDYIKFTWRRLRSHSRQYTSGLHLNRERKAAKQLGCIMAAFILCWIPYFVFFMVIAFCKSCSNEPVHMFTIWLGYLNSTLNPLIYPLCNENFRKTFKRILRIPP
Description: Displacement of [3H]pyrilamine from guinea pig cerebellum histamine H1 receptor measured after 60 mins by liquid scintillation counting method

[21] = target: Adrenergic receptor alpha-1 (Rattus norvegicus, UniProt P15823+P23944+P43140)
Description: Displacement of [3H]prazosin from rat cerebral cortex alpha1 adrenergic receptor measured after 60 mins by liquid scintillation counting method

[22] = target: 5-hydroxytryptamine receptor 6 (Homo sapiens, UniProt P50406)
Description: Displacement of [3H]lysergic acid diethylamide from human recombinant 5HT6 receptor stably expressed in CHO cell membranes measured after 30 mins by liquid scintillation counting method

[23] = Toxicity in Kunming mouse assessed as change in body weight at 0.1 to 0.3 mg/kg, po administered for 28 days measured daily during compound dosing; assay type: organism-based; conditions: in vivo, 672 h, dose 0.1-0.3 mg/kg, time 28 day
Mus musculus [24] = species: Mus musculus; assay: animal or person; conditions: Kunming, po, 1.333 h
[25] = Displacement of [3H]ketanserin from human 5HT2A receptor expressed in CHO-K1 cells measured after 20 mins
[26] = target: Sigma intracellular receptor 2 (Homo sapiens, UniProt Q5BJF2); assay: Binding affinity to sigma 2 receptor (unknown origin)
Sequence of Sigma intracellular receptor 2 (Q5BJF2 whole entry): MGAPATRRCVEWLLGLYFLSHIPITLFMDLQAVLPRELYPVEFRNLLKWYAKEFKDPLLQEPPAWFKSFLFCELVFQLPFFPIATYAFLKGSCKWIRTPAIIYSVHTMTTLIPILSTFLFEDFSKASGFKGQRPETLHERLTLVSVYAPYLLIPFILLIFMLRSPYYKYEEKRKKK

[27] = target: Adrenergic receptor alpha-2 (Homo sapiens, UniProt P08913+P18825+P18089); assay: Binding affinity to alpha2 adrenergic receptor (unknown origin); assay type: protein assay
[28] = target: Sodium-dependent noradrenaline transporter (Homo sapiens, UniProt P23975); assay: Binding affinity to NET (unknown origin)
[29] = target: Sodium-dependent dopamine transporter (Homo sapiens, UniProt Q01959); assay: Binding affinity to DAT (unknown origin)
Sequence of Sodium-dependent dopamine transporter (Q01959 whole entry): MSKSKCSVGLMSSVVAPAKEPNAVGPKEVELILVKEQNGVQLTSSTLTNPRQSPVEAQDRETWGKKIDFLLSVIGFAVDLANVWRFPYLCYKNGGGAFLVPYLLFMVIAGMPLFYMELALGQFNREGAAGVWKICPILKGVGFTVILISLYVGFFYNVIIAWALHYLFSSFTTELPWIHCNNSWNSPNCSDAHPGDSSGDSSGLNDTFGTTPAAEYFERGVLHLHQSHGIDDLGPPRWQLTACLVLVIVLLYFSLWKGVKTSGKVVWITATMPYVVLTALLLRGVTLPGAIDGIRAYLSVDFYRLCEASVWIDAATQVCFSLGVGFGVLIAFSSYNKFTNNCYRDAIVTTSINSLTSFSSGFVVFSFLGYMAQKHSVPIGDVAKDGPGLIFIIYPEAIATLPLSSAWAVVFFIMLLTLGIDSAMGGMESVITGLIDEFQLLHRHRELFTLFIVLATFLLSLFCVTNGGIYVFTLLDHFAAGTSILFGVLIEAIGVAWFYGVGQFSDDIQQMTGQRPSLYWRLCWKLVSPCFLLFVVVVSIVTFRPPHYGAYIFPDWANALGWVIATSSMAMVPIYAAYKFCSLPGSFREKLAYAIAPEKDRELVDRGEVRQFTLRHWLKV

D(1A) dopamine receptor = D(1A) dopamine receptor (Homo sapiens, UniProt P21728); assay: Binding affinity to D1 receptor (unknown origin)
[30] = target: Sigma non-opioid intracellular receptor 1 (Homo sapiens, UniProt Q99720); assay: Binding affinity to sigma 1 receptor (unknown origin)
Histamine H3 receptor = Histamine H3 receptor (Homo sapiens, UniProt Q9Y5N1); assay: Binding affinity to H3 receptor (unknown origin)
Sequence of Histamine H3 receptor (Q9Y5N1 whole entry): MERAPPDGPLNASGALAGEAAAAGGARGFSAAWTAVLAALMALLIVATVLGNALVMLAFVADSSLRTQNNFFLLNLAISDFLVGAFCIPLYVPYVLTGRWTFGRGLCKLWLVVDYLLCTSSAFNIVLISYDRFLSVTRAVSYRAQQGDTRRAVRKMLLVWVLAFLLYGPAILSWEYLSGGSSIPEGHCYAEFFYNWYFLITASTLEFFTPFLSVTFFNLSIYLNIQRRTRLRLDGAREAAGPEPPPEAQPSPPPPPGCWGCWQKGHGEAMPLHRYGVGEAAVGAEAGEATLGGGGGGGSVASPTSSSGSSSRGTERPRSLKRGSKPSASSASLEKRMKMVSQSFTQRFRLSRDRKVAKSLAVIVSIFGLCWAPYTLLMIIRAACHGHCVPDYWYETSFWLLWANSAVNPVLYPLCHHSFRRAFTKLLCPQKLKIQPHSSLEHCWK

[31] = target: Voltage-gated inwardly rectifying potassium channel KCNH2 (Homo sapiens, UniProt Q12809)
Description: Inhibition of human ERG expressed in HEK293 cells by whole-cell patch clamp method

[32] = target: T2, 5-hydroxytryptamine receptor 2A; assay: Antagonist activity at human 5HT2A receptor expressed in CHO-K1 cells assessed as inhibition of 5HT-induced calcium flux incubated for 60 mins at 37 degC followed by 15 mins incubation at room temperature and subsequent 5HT addition by calcium 4 dye based FLIPR assay; assay type: functional, cell-based
[33] = target: Sodium-dependent serotonin transporter (Homo sapiens, UniProt P31645); assay: Binding affinity to SERT (unknown origin)

Sequence of 5-hydroxytryptamine receptor 2A (Rattus norvegicus, UniProt P14842) (P14842 whole entry): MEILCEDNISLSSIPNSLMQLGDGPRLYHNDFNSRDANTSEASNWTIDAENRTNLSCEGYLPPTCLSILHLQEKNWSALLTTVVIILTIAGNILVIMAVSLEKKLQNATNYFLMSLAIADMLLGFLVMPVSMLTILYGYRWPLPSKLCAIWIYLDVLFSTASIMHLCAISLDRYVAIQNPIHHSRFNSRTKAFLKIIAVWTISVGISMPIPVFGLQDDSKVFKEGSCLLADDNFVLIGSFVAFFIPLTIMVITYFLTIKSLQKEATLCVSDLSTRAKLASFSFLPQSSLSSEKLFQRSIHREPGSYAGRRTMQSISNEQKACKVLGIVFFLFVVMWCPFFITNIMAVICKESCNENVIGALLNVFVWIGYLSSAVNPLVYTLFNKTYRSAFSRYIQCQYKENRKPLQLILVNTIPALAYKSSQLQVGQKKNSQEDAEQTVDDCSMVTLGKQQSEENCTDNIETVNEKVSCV

Structure (SMILES)	Ki [1] [µM]	Ki (D(2) dopamine receptor [2]) [µM]	Ki [3] [µM]	further results
CN1CCc2ccc(OCC(F)CN3CCC(c4noc5cc(F)ccc45)CC3)cc2C1=O (stereo unspecified)	0.0237	0.359	0.0682	–
O=C1CN=C(c2ccccc2Cl)c2cc([N+](=O)[O-])ccc2N1 [CLONAZEPAM]	–	–	–	Activity [4]: 5784 mm; Activity [5]: 762 mm; Activity [6]: 12188 mm
O=C(CCCCN1CCC(c2noc3cc(F)ccc23)CC1)c1cc2c3c(c1)CCN3C(=O)CC2	–	–	–	Ki (D(2) dopamine receptor [7]): 0.0029 µM; Ki (D(3) dopamine receptor): 0.00166 µM; Ki [8]: 0.0086 µM; Ki (Histamine H1 receptor [9]): 0.63 µM; Ki [10]: 0.00072 µM; Ki [11]: 0.616 µM
CN1CCc2ccc(OCC(O)CN3CCC(c4noc5cc(F)ccc45)CC3)cc2C1=O (stereo unspecified)	0.768	1.24	0.856	–
CC1CCc2ccc(OCCCCN3CCC(c4nsc5ccccc45)CC3)cc2C1=O (stereo unspecified)	0.89	> 10	1.3	–
CN1CCc2ccc(OCCCN3CCN(c4cccc(C(F)(F)F)c4)CC3)cc2C1=O	0.102	0.123	1.04	–
O=C(CCCN1CCC(O)(c2ccc(Cl)cc2)CC1)c1ccc(F)cc1 [HALOPERIDOL]	–	–	–	ED50 (Mus musculus [12]): 0.09 mg/kg; ED50 (Mus musculus [13]): 0.11 mg/kg; selectivity ratio [14]: 3.5; selectivity ratio [15]: 2.9; ED50 [16]: 0.32 mg/kg
CN1CCc2ccc(OCCCCN3CCN(c4cccc(C(F)(F)F)c4)CC3)cc2C1=O	0.132	0.261	1.04	–
CCN(C)C(=O)Oc1cccc([C@H](C)N(C)C)c1 [RIVASTIGMINE]	–	–	–	Activity [17]: Non-Toxic; Activity (Rattus norvegicus): Active
CN1CCc2ccc(OCCCN3CCN(c4ccccc4Cl)CC3)cc2C1=O	0.179	0.391	0.0892	–
CN1CCc2ccc(OCCCN3CCN(c4cccc5sccc45)CC3)cc2C1=O	–	–	0.0652	–
Cn1ccc2ccc(OCCCN3CCC(c4noc5cc(F)ccc45)CC3)cc2c1=O	0.0035	0.0092	0.0121	Ki [18]: 0.109 µM; Ki [19]: 0.129 µM; Ki (Histamine H1 receptor [20]): 0.118 µM; Ki [21]: 0.718 µM; Ki [22]: 0.167 µM
CN1CCc2ccc(OCCCN3CCN(c4ccc5ccccc5n4)CC3)cc2C1=O	> 10	> 10	0.0102	–
CN1CCc2cc(OCCCN3CCC(c4noc5cc(F)ccc45)CC3)ccc2C1=O	0.692	> 10	> 10	–
CN1CCc2ccc(OCCCN3CCN(c4ncccn4)CC3)cc2C1=O	0.0653	1.37	0.0593	–
CN1CCc2ccc(OCCCCN3CCN(c4cccc5sccc45)CC3)cc2C1=O	–	0.162	0.431	–
CN1COc2ccc(OCCCN3CCC(c4noc5cc(F)ccc45)CC3)cc2C1=O	0.598	0.698	0.187	–
COc1ccccc1N1CCN(CCCCOc2ccc3c(c2)C(=O)N(C)CC3)CC1	> 10	> 10	> 10	–

Structure (SMILES)	Ki [1] [µM]	Ki (D(2) dopamine receptor [2]) [µM]	Ki [3] [µM]	further results
CN1CCc2ccc(OCCN3CCC(c4noc5cc(F)ccc45)CC3)cc2C1=O	> 10	0.568	> 10	–
Cc1nc2n(c(=O)c1CCN1CCC(c3noc4cc(F)ccc34)CC1)CCCC2 [RISPERIDONE]	–	–	–	Activity [17]: Non-Toxic; ED50 (Mus musculus [12]): 0.02 mg/kg; Activity [23]: Toxic; ED50 (Mus musculus [13]): 0.04 mg/kg; ED50 (Mus musculus [24]): 0.04 mg/kg; ED50 [16]: 1.62 mg/kg
O=c1ccc2ccc(OCCCCN3CCN(c4cccc5sccc45)CC3)cc2[nH]1 [BREXPIPRAZOLE]	–	–	–	Ki [25]: 0.00047 µM
COc1ccc(N2CCN(CCCOc3ccc4c(c3)C(=O)N(C)CC4)CC2)cc1	> 10	> 10	> 10	–
CN1CCc2ccc(OCCCN3CCN(c4ccccc4)CC3)cc2C1=O	> 10	> 10	> 10	–
CCN1CCc2ccc(OCCCN3CCC(c4noc5cc(F)ccc45)CC3)cc2C1=O	0.0921	0.249	0.198	–
CN1CCc2ccc(OCCCN3CCN(c4ccccc4F)CC3)cc2C1=O	0.306	0.117	0.262	–
CN1CCc2ccc(OCCCN3CCN(Cc4ccc5c(c4)OCO5)CC3)cc2C1=O	0.0259	> 10	0.0183	–
CN1CCc2ccc(OCCCCN3CCC(c4noc5cc(F)ccc45)CC3)cc2C1=O	0.0283	0.0416	0.0306	–
CN1CCc2ccc(OCCCN3CCN(c4cccc(Cl)c4Cl)CC3)cc2C1=O	0.0168	0.0682	0.0201	–
COc1ccccc1N1CCN(CCCOc2ccc3c(c2)C(=O)N(C)CC3)CC1	0.992	0.896	1.11	–
CN1CCc2ccc(OCCCN3CCC(C(=O)c4ccc(F)cc4F)CC3)cc2C1=O	> 10	0.902	> 10	–
CN1CCc2ccc(OCCCCN3CCN(c4cccc(Cl)c4Cl)CC3)cc2C1=O	0.216	0.316	0.119	–
CN1CCc2ccc(OCCCN3CCC(c4noc5cc(F)ccc45)CC3)cc2C1=O	0.00065	–	0.0091	Ki [26]: > 1 µM; Ki (D(3) dopamine receptor): 0.226 µM; Ki [18]: 0.0049 µM; Ki [19]: 1.69 µM; Ki [27]: > 1 µM; Ki [28]: > 1 µM; Ki (Histamine H1 receptor [20]): 1.2 µM; Ki [21]: 0.991 µM; Ki [29]: > 1 µM; Ki (D(1A) dopamine receptor): > 1 µM; Ki [30]: > 1 µM; Ki (Histamine H3 receptor): > 1 µM; IC50 [31]: 2.31 µM; IC50 [32]: 0.0463 µM; Ki [33]: > 1 µM
CN1CCc2ccc(OCCCN3CCN(c4ccccn4)CC3)cc2C1=O	1.16	> 10	> 10	–
CN1CCc2ccc(OCCCN3CCN(c4ccc(F)cc4)CC3)cc2C1=O	0.246	0.532	0.158	–
CN1CCc2ccc(OCCCN3CCN(c4ccc(Cl)cc4)CC3)cc2C1=O	0.589	0.268	0.356	–
